Experimental data from patent US20220274927A1, “MEMBRANE-ACTIVE ANTI-BACTERIAL COMPOUNDS AND USES THEREOF” (Trustees of Dartmouth College, priority 2019, published 2022).
In brackets after ≈: the same amount, converted by molar mass.

How the values were obtained:
[1] = test system: S. epidermidis NIH04003; experiment: Antimicrobial susceptibility MIC, S. epidermidis NIH04003; type: cell-based; settings: Staphylococcus epidermidis; S. epidermidis strain NIH04003
Source text: (§1) The first set of compounds evaluated were analogs at the C-7 and C-8 positions of the initial quinolone hit DNAC-2 since the other HTS hits identified (data not shown) were substituted at these positions (Table 1). Applicants first explored modification at the C-7 position with a small series of electron-donating and withdrawing substituents. […] However, analogs containing electron donating groups at C-7 including ethyl 7, benzyloxy 8, methoxy 9 and methylthio 10 are weakly active displaying MICs of 320-640 μg/mL indicating electron-donating substituents at C-7 are poorly tolerated. […] The C-8 position was evaluated with trifluoromethyl 4 and trifluoromethoxy 5 containing the optimal C-7 substituents. Both 4 and 5 are equipotent to the corresponding C-7 analogs 2 and 3 indicating some flexibility of the quinolone scaffold.
(§2) The compounds maintain activity against Staphylococcus epidermidis; however, 31, 111 and 123 all lose considerable potency against Enterococcus faecalis and Enterococcus faecium, which contribute heavily, along with MRSA, to healthcare-associated infections.

[2] = test system: S. aureus N325; experiment: Antimicrobial susceptibility MIC, S. aureus N325; type: cell-based; settings: Staphylococcus aureus; S. aureus strain N325
Source text: as §1, §2

[3] = test system: methicillin-resistant S. aureus (FPR3757); experiment: MIC against clinical MRSA strain FPR3757 in Mueller-Hinton broth (CLSI); type: cell-based, Staphylococcus aureus; settings: Staphylococcus aureus, MRSA, MRSA clinical strain FPR3757, Mueller-Hinton broth, CLSI guidelines, complete inhibition of observable growth; read-out: MIC
Source text: as §1

[4] = test system: erythrocyte membranes (versus S. aureus membranes); experiment: in vitro; type: cell-based, sheep; settings: sheep; read-out: selectivity for S. aureus membranes over erythrocyte membranes
Description: FIG. 8 illustrates percent hemolysis analysis of sheep erythrocytes. Concentration-dependent hemolysis was measured by monitoring the optical density (OD)540 of PBS-washed sheep erythrocytes. Complete hemolysis (100%) was confirmed by treatment of erythrocytes with Triton X-100. Data points represent the mean±SD of triplicate experiments.
The macromolecular synthesis assay, TEM, and FM experiments were all consistent with membrane disruption. […] The high membrane selectivity of the 5-aminoquinolin-4-ones in this assay is impressive and is in accordance with the observed therapeutic index (CC50/MIC).

[5] = test system: S. aureus NRS71; experiment: Antimicrobial susceptibility MIC, S. aureus NRS71; type: cell-based; settings: Staphylococcus aureus; S. aureus strain NRS71
Source text: as §1, §2

[6] = test system: S. aureus MW2; experiment: Antimicrobial susceptibility MIC, S. aureus MW2; type: cell-based; settings: Staphylococcus aureus; S. aureus strain MW2; read-out: MIC
Source text: as §1, §2

[7] = Solubility; type: physicochemical
[8] = test system: S. aureus NIH04008; experiment: Antimicrobial susceptibility MIC, S. aureus NIH04008; type: cell-based; settings: Staphylococcus aureus; S. aureus strain NIH04008; read-out: MIC
Source text: as §1, §2

[9] = test system: E. faecalis DHMC #1; experiment: Antimicrobial susceptibility MIC, E. faecalis DHMC #1; type: cell-based; settings: Enterococcus faecalis; E. faecalis strain DHMC #1
Source text: as §1, §2

[10] = test system: S. aureus COL; experiment: Antimicrobial susceptibility MIC, S. aureus COL; type: cell-based; settings: Staphylococcus aureus; S. aureus strain COL
Source text: as §1, §2

[11] = test system: clinical methicillin-resistant Staphylococcus aureus (MRSA) isolates; experiment: MIC against panel of MRSA / staphylococcal strains (text summaries); type: cell-based; settings: six S. aureus strains of Table 9, read-out: MIC towards all six S. aureus strains
Source text: as §1, §2

[12] = test system: E. faecium DHMC #1; experiment: Antimicrobial susceptibility MIC, E. faecium DHMC #1; type: cell-based; settings: Enterococcus faecium; E. faecium strain DHMC #1
Source text: as §1, §2

[13] = test system: MRSA; settings: HTS hit, previously reported by Applicants; cited from earlier work
[14] = test system: membrane of gram-positive bacteria; settings: previously reported; cited from earlier work
[15] = test system: eukaryotic membranes; settings: cited from earlier work

Compound | MIC [1] | MIC [2] | MIC [3] | selectivity ratio [4] | MIC [5] | MIC [6] | solubility [7] | MIC [8] | MIC [9] | MIC [10] | MIC [11] | MIC [12] | MIC against MRSA [13] | membrane effect on gram-positive bacteria [14] | toxicity towards eukaryotic membranes [15]
O=c1cc(C(F)(F)F)[nH]c2cc(C(F)(F)F)cc(Nc3ccc(C(F)(F)F)cn3)c12 [Compound 111] | < 0.06 µg/mL | < 0.06 µg/mL | < 0.06 µg/mL | > 500 | < 0.06 µg/mL | < 0.06 µg/mL | low solubility | < 0.06 µg/mL | 2 µg/mL (≈ 4.53 µM) | < 0.06 µg/mL | < 0.06 µg/mL | 2 µg/mL (≈ 4.53 µM) | – | – | –
O=c1cc(C(F)(F)F)[nH]c2c(OC(F)(F)F)cccc12 [DNAC-2] | – | – | – | – | – | – | – | – | – | – | – | – | 8 µg/mL (≈ 26.9 µM) | partial membrane depolarization | no toxicity towards eukaryotic membranes
